For data set [1], the system named is γ-aminobutyric acid type A (GABAA) receptors. As to conditions: Carter et al 1997; cited from earlier work.
A further data set concerns CYP3A⅘. In words: metabolism and interaction with strong CYP inducers (in vitro data and human PK data).
The subject of data set [2] is super refractory status epilepticus. Kind of data set: Case Report 3: IV-to-enteric ganaxolone in a person with super refractory status epilepticus (FIRES). It is filed as in vivo, human. The source says: A previously healthy person presented with encephalopathy and fever and developed super refractory status epilepticus concordant with fever-induced refractory […] (FIRES). On administration, the patient presented in the emergency department (ED) with fever, abdominal pain, and encephalopathy. Patient was admitted to pediatric intensive care unit (PICU) and placed on video-electroencephalogram (vEEG). See, FIG. 4.
Immunomodulatory therapies with IV methylprednisolone and IVIG were initiated concomitantly.
After multiple ASMs, failed attempts to wean pentobarbital, and ketamine and midazolam infusions, they were treated under EIND approval for a trial of IV-to-enteric ganaxolone. Ganaxolone was administered on hospital day 17 using an IV bolus, followed by infusion over 6 days (with boluses as needed for breakthrough seizures) (FIG. 5). Midazolam was discontinued on day 2 of GNX IV protocol; ketamine was discontinued by day 8 with the assistance of phenobarbital loads and maintenance Anakinra was initiated on day 2 of GNX IV protocol (hospital day 19).

Data set [3] can be described thus: safety in the ganaxolone clinical development program. It is filed as in vivo, human. The source says: In the completed placebo-controlled Phase 1, 2, and 3 studies, 0.32% of subjects who received ganaxolone and 0.46% of subjects who received placebo developed elevated LFTs during the study (>3x ULN AST and/or ALT). A subject participating in the ganaxolone paediatric epilepsy study developed liver failure, which was not considered to be related to ganaxolone. The subject was diagnosed with short bowel syndrome, liver steatosis and IgG-cholangitis, which were considered to be the causal factors for the subject’s liver failure. There have been no other cases of Hy’s Law or liver failure in the ganaxolone development program. […] After cessation of the dosing, plasma ganaxolone levels are expected to drop rapidly, but it is possible that low sub-therapeutic levels persist for several days as ganaxolone is slowly released from tissues.
Ganaxolone has been administered to infants with severe forms of epilepsy as early as 4 months of age. In clinical trials involving administration of ganaxolone over several weeks, the study drug has been tapered off over a 1 to 2-week period.

The subject of data set [4] is super refractory status epilepticus.
The next data set relates to SE. Kind of data set: ganaxolone intravenous bolus plus continuous infusion in SE (inventors' earlier finding). It is filed as in vivo. The settings on record: plasma concentration 500 ng/ml or higher for at least about 8 hours. The source says:
As described and exemplified herein, the inventors believe that ganaxolone holds promise as an effective therapy for SRSE. […] However, as discussed above, SRSE patients are an extremely ill subset of patients in which SE continues or recurs despite therapy with anesthetic agents (e.g., midazolam, propofol, ketamine, or barbiturate). […] When this occurs, the patient is typically then re-administered anesthetic agents at doses to cause burst suppression and to induce coma. As such, patients are typically weaned off anesthetics very slowly and typically by reducing anesthetics by no more than about 20% per day.

For data set [5] the following is noted: cited from earlier work.
In a further data set the target is T1, progesterone receptor (Homo sapiens, UniProt P06401).
T1 sequence (P06401 1-933): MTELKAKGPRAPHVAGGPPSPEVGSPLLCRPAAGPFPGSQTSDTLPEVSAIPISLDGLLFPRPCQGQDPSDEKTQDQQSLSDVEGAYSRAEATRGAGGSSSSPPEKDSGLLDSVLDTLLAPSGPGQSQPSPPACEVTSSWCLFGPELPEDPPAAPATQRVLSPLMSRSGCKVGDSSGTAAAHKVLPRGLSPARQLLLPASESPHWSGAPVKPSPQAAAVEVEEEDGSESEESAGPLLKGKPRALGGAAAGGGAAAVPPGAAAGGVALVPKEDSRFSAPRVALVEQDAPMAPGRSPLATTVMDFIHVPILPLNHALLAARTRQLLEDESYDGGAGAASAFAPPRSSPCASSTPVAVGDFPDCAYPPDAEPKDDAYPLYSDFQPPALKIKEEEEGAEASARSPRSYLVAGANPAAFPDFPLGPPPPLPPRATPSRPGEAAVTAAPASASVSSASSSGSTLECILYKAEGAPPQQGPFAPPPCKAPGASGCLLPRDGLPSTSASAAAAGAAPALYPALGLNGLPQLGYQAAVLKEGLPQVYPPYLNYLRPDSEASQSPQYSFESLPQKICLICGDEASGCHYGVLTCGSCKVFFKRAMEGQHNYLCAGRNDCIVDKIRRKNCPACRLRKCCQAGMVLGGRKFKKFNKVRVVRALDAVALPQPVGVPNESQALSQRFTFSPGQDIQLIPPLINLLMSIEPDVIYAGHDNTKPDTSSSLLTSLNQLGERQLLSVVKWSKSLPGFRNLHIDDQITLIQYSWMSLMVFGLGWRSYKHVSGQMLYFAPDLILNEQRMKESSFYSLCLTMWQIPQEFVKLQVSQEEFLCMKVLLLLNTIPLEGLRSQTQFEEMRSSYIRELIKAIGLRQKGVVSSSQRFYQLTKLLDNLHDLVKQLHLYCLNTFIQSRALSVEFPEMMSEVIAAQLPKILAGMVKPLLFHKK
In words: activation of the progesterone receptor (hormonal activity). As to conditions: directly or via metabolic conversion. The source says: Ganaxolone (3α-hydroxy-3β-methyl-5α-pregnan-20-one) is a 3β-methylated synthetic analogue of the endogenous neurosteroid allopregnanolone with similar biological activity (Carter et al., (1997), The Journal of Pharmacology and Experimental Therapeutics, 280:1284-1295), but it is designed to not activate nuclear (classical) progesterone receptors.

Take `CC(=O)[C@H]1CC[C@H]2[C@@H]3CC[C@H]4C[C@](C)(O)CC[C@]4(C)[C@H]3CC[C@]12C` [ganaxolone, 3α-hydroxy-3β-methyl-5α-pregnan-20-one]: the “action on GABAA receptors in the CNS” value in data set [1] is “positive allosteric modulator”. Also, the metabolizing enzyme entry with CYP3A⅘ (human, in vivo) is on record as “metabolized by CYP3A⅘”. In the data set with CYP3A⅘ (subjects taking strong CYP inducers (carbamazepine and phenytoin)), the “lowering in overall ganaxolone levels and exposure” value is about 45%. Further, the “day of GNX IV protocol on which midazolam was discontinued” value in data set [2] (IV bolus, infusion over 6 days) came to 2 days. The clinical status entry in data set [2] (at 6 weeks, transfer from ICU to the floor) is “alert and was responsive with some vocalizations”; in data set [2] (by 4 weeks after admission) it was “more responsive”. The “day by which ketamine was discontinued” value in data set [2] (with the assistance of phenobarbital loads and maintenance) was at most 8 days. The “withdrawal symptoms after cessation” value in data set [3] (clinical trials, tapered off over 1 to 2 weeks) is recorded as “no reports of withdrawal symptoms”. The “subjects who developed elevated LFTs (>3x ULN AST and/or ALT)” value in data set [3] (completed placebo-controlled Phase 1, 2, and 3 studies) is 0.32%. In data set [3] (development program overall), the “ECG intervals, vital signs, physical or neurological examinations” value is reported as “no clinically significant trends”. Also, the “excretion to breast milk” value in data set [3] (ganaxolone and its metabolites) is “excreted to breast milk”. For the same molecule, the “time to improvement on EEG” value in data set [4] (after IV GNX bolus 0.64 mg/kg) is at most 10 min. Also, the “clinical seizures after hospitalization” value in data set [4] (four weeks after discharge, on oral GNX, 20 seizures per day at baseline) is “no clinical seizures”. Further, the “time of IV GNX until extubation” value in data set [4] (in vivo, iv) turned out to be 48 h. In addition, the “suppression of SE” value in the data set on SE is “rapid and continued suppression of SE”. In addition, the half-life entry in data set [5] (human plasma, oral administration, Nohria and Giller 2007) is reported as “approximately 20 hours”. In data set [5] (in contrast to allopregnanolone), the oral bioavailability entry is “orally bioavailable”. In addition, the Tmax result in data set [5] (in vivo) is reported as “short”. For the same molecule, on progesterone receptor, the “activation of the progesterone receptor” value was “does not activate the progesterone receptor directly or indirectly”.
